Source: patent EP3744729B1, “PEPTIDES, COMPOSITIONS COMPRISING THEM AND COSMETIC AND DERMOPHARMACEUTICAL USES” (SEDERMA, priority 2009, dated 2023)
Where a SMILES comes first, the peptide text is derived from it. [ ]: non-standard residue; d: D form. The star is where a group is joined. Met(O2) = CS(=O)(=O)CC[C@H](N)C(=O)O; Palmitoyl = CCCCCCCCCCCCCCCC(=O)*; Ava = NCCCCC(=O)O

Assays:
[1] = system: dermal NHF; assay: Immunostaining method on dermal NHF: collagen I (Table 7, Test 2); type: cell-based, human; conditions: % difference compared to the control
Text: Table 7 showing % differences in collagen I in the dermis compared to the control for dioxygenated peptide compounds according to the immunostaining method or to ELISA test on dermal NHF

[2] = system: normal human dermal fibroblasts (NHF); assay: ELISA test on normal human dermal fibroblasts (NHF): macromolecules in culture supernatant; type: cell-based; conditions: % difference compared to the control; for Collagen I in the dermis Test 1: Table 7; for Collagen I in the dermis: 3 days contact
Method: > ELISA test on normal human dermal fibroblasts (NHF)
This test examines the dermal molecules.
Normal human dermal fibroblasts are cultured in multi-well plates. The cells either are or are not placed in contact with the test substances for 3 days. The culture supernatants are removed and the quantity of macromolecules present (collagen I, fibronectin, collagen IV and hyaluronic acid) is assayed by ELISA.

[3] = system: normal human dermal fibroblasts (NHF); assay: Immunofluorescence (IMF) on normal human dermal fibroblasts (NHF): collagen III; type: cell-based; conditions: 5 ppm peptide
Method: > Immunofluorescence (IMF) on normal human dermal fibroblasts (NHF)
This test examines dermal molecules.
Norman human fibroblasts are cultured in plates. The cells either are or are not placed in contact with the test substances for […]. The cell layers are then labeled with antibodies specifically recognizing collagen III. Photographs were used to reveal and quantify the synthesis of collagen III.

[4] = system: Human Keratinocytes (HK); assay: ELISA test on Human Keratinocytes (HK): macromolecules in culture supernatant; type: cell-based; conditions: epidermal HK, % difference compared to the control
Method: > ELISA test on Human Keratinocytes (HK)
This test examines epidermal molecules.
Human keratinocytes are cultured in multi-well plates. The cells either are or are not placed in contact with the test substances for 3 days. The culture supernatants are removed and the quantity of macromolecules present (fibronectin, laminins and hyaluronic acid) is assayed by ELISA.

[5] = Table 5, ELISA, 5 ppm peptide, no plant

CCCCCCCCCCCCCCCC(=O)NCCCCC(=O)N[C@@H](CCS(C)(=O)=O)C(N)=O [Pal-Ava-MO2-NH2]
Collagen I in the dermis Test 2 ([1]; 2 ppm): +495%
Collagen I in the dermis Test 2 ([1]; 4 ppm): +667%
Collagen I in the dermis Test 2 ([1]; 6 ppm): +557%

CCCCCCCCCCCCCCCC(=O)N[C@@H](CCCCN)C(=O)NCCCCC(=O)N[C@@H](CCCCN)C(=O)O [Pal-K-Ava-K-OH, reference compound]
Collagen I in the dermis Test 1 ([2]; 4 ppm): +116%
Collagen I in the dermis Test 1 ([2]; 6 ppm): +175%

CCCCCCCCCCCCCCCC(=O)N[C@@H](CCCCN)C(=O)NCCCCC(=O)N[C@@H](CCS(C)(=O)=O)C(=O)N[C@@H](CCCCN)C(=O)O [Pal-K-Ava-MO2-K-OH] (Palmitoyl-K[Ava][Met(O2)]K-OH)
Collagen I in the dermis Test 1 ([2]; 2 ppm): +63%
Collagen I in the dermis Test 1 ([2]; 4 ppm): +167%

CCCCCCCCCCCCCCCC(=O)N[C@@H](CCCCN)C(=O)N[C@@H](Cc1ccccc1)C(=O)N[C@@H](CCS(C)(=O)=O)C(=O)N[C@@H](CCCCN)C(=O)O [Pal-K-F-MO2-K-OH] (Palmitoyl-KF[Met(O2)]K-OH)
Collagen I in the dermis Test 1 ([2]; 4 ppm): +80%
Collagen I in the dermis Test 1 ([2]; 6 ppm): +81%

CCCCCCCCCCCCCCCC(=O)N[C@@H](CCCCN)C(=O)N[C@@H](CCS(C)(=O)=O)C(=O)NCCCCC(=O)N[C@@H](CCCCN)C(=O)O [Pal-K-MO2-Ava-K-OH] (Palmitoyl-K[Met(O2)][Ava]K-OH)
Collagen I in the dermis Test 1 ([2]; 2 ppm): +75%

CCCCCCCCCCCCCCCC(=O)N[C@@H](CCCCN)C(=O)N[C@@H](CCS(C)(=O)=O)C(=O)N[C@@H](Cc1ccccc1)C(=O)N[C@@H](CCCCN)C(=O)O [Pal-K-MO2-F-K-OH] (Palmitoyl-K[Met(O2)]FK-OH)
Collagen I in the dermis Test 1 ([2]; 4 ppm): +91%

CCCCCCCCCCCCCCCC(=O)N[C@@H](CCCCN)C(=O)N[C@@H](CCS(C)(=O)=O)C(=O)N[C@H](C(=O)N[C@@H](CCCCN)C(=O)O)[C@@H](C)O [Pal-K-MO2-T-K-OH] (Palmitoyl-K[Met(O2)]TK-OH)
Collagen I in the dermis Test 2 ([1]; 4 ppm): +192%
Collagen I in the dermis Test 2 ([1]; 6 ppm): +217%
Collagen I in the dermis Test 1 ([2]; 4 ppm): +45%
Collagen I in the dermis Test 1 ([2]; 6 ppm): +194%

CCCCCCCCCCCCCCCC(=O)N[C@@H](CCCCN)C(=O)N[C@H](C(=O)N[C@@H](Cc1ccccc1)C(=O)N[C@@H](CCCCN)C(=O)O)[C@@H](C)O [Pal-K-T-F-K-OH, reference compound] (Palmitoyl-KTFK-OH)
Collagen I in the dermis Test 1 ([2]; 4 ppm): +82%
Collagen I in the dermis Test 1 ([2]; 6 ppm): +103%

CCCCCCCCCCCCCCCC(=O)N[C@@H](CCCCN)C(=O)N[C@H](C(=O)N[C@@H](Cc1ccccc1)C(=O)N[C@@H](CCS(C)(=O)=O)C(N)=O)[C@@H](C)O [Pal-K-T-F-MO2-NH2] (Palmitoyl-KTF[Met(O2)]-NH2)
Collagen I in the dermis Test 2 ([1]; 2 ppm): +267%
Collagen I in the dermis Test 2 ([1]; 4 ppm): +420%
Collagen I in the dermis Test 2 ([1]; 6 ppm): +400%
Collagen I in the dermis Test 1 ([2]; 4 ppm): +106%
Collagen I in the dermis Test 1 ([2]; 6 ppm): +121%

CCCCCCCCCCCCCCCC(=O)N[C@@H](CCCCN)C(=O)N[C@H](C(=O)N[C@@H](CCS(C)(=O)=O)C(=O)N[C@@H](CCCCN)C(=O)O)[C@@H](C)O [Pal-K-T-MO2-K-OH] (Palmitoyl-KT[Met(O2)]K-OH)
Collagen I in the dermis Test 2 ([1]; 2 ppm): +273%
Collagen I in the dermis Test 2 ([1]; 4 ppm): +341%
Collagen I in the dermis Test 2 ([1]; 6 ppm): +262%
Collagen I in the dermis Test 1 ([2]; 4 ppm): +75%
Collagen I in the dermis Test 1 ([2]; 6 ppm): +161%

CCCCCCCCCCCCCCCC(=O)N[C@@H](CCCCN)C(=O)N[C@@H](C)C(=O)N[C@@H](CCCCN)C(=O)O [Pal-KAK-OH, reference compound] (Palmitoyl-Lys-Ala-Lys-OH)
Coll. I ([2]; 4 ppm peptide): +42%
Coll. IV ([2]; 4 ppm peptide): -6%
Fibronectin ([2]; dermal NHF, 4 ppm peptide): +33%

CCCCCCCCCCCCCCCC(=O)N[C@@H](CCCCN)C(=O)N[C@@H](CS)C(=O)N[C@@H](CCCCN)C(=O)O [Pal-KCK-OH] (Palmitoyl-Lys-Cys-Lys-OH)
Coll. I ([2]; 4 ppm peptide): +145%
Coll. IV ([2]; 4 ppm peptide): -1%
Collagen I in the dermis ([2]; 4 ppm peptide): +145%
Coll. I ([2]; 6 ppm peptide): +133%
Coll. IV ([2]; 6 ppm peptide): +23%
Collagen I in the dermis ([2]; 6 ppm peptide): +133%
Fibronectin ([2]; dermal NHF, 4 ppm peptide): +57%
Fibronectin ([2]; dermal NHF, 6 ppm peptide): +70%

CCCCCCCCCCCCCCCC(=O)N[C@@H](CCCCN)C(=O)N[C@@H](CCSC)C(=O)N[C@@H](CCCCN)C(=O)O [Pal-KMK-OH] (Palmitoyl-Lys-Met-Lys-OH)
Collagen I in the dermis ([2]; 4 ppm peptide): +21%
Collagen I in the dermis ([2]; 8 ppm peptide): +64%
Collagen I in the dermis Test 1 ([2]; 4 ppm): +21%
Collagen I in the dermis Test 1 ([2]; 6 ppm): +63%

CCCCCCCCCCCCCCCC(=O)N[C@@H](CCCCN)C(=O)N[C@@H](CCS(C)(=O)=O)C(=O)N[C@@H](CCCCN)C(=O)O [Pal-KMO2K-OH] (Palmitoyl-Lys-[Met(O2)]-Lys-OH)
Collagen I in the dermis Test 2 ([1]; 2 ppm): +329%
Collagen I in the dermis Test 2 ([1]; 4 ppm): +423%
Collagen I in the dermis Test 2 ([1]; 5 ppm): +486%
Coll. III ([3]; % difference compared to the control, 35 days contact): +104%
Coll. III ([3]; Table 5, % difference compared to the control, no plant): +104%
Coll. I ([2]; 4 ppm peptide): +188%
Coll. IV ([2]; 4 ppm peptide): +27%
Collagen I in the dermis ([2]; 4 ppm peptide): +188%
Coll. I ([2]; 6 ppm peptide): +187%
Coll. IV ([2]; 6 ppm peptide): +97%
Collagen I in the dermis ([2]; 6 ppm peptide): +187%
Coll. I [2, 5]: +111%
Coll. IV [2, 5]: +42%
Fibronectin [2, 5]: +59%
Hyaluronic acid [2, 5]: ≈0%
Collagen I in the dermis Test 1 ([2]; 4 ppm): +188%
Collagen I in the dermis Test 1 ([2]; 6 ppm): +187%
Fibronectin ([2]; dermal NHF, 4 ppm peptide): +42%
Hyaluronic acid ([2]; dermal NHF, 4 ppm peptide): ≈0%
Fibronectin ([2]; dermal NHF, 6 ppm peptide): +109%
Hyaluronic acid ([2]; dermal NHF, 6 ppm peptide): +55%
Hyaluronic acid ([4]; Table 6, 2 ppm peptide, no plant): +44%
Hyaluronic acid ([4]; Table 6, 4 ppm peptide, no plant): +139%
Hyaluronic acid ([4]; Table 6, 5 ppm peptide, no plant): +172%
Hyaluronic acid ([4]; Table 6, 6 ppm peptide, no plant): +290%
Fibronectin ([4]; 4 ppm peptide): +35%
Hyaluronic acid ([4]; 4 ppm peptide): +139%
Laminins ([4]; 4 ppm peptide): +30%
Fibronectin ([4]; 5 ppm peptide): +65%
Hyaluronic acid ([4]; 5 ppm peptide): +172%
Laminins ([4]; 5 ppm peptide): +66%
Fibronectin ([4]; 6 ppm peptide): +159%
Hyaluronic acid ([4]; 6 ppm peptide): +290%
Laminins ([4]; 6 ppm peptide): +172%

CCCCCCCCCCCCCCCC(=O)N[C@@H](CCCCN)C(=O)N[C@@H](CC(N)=O)C(=O)N[C@@H](CCCCN)C(=O)O [Pal-KNK-OH] (Palmitoyl-Lys-Asn-Lys-OH)
Collagen I in the dermis ([2]; 5 ppm peptide): +55%

CCCCCCCCCCCCCCCC(=O)N[C@@H](CCCCN)C(=O)N[C@@H](CCC(N)=O)C(=O)N[C@@H](CCCCN)C(=O)O [Pal-KQK-OH]
Coll. I ([2]; 5 ppm peptide): +82%
Fibronectin ([2]; dermal NHF, 5 ppm peptide): +35%

CCCCCCCCCCCCCCCC(=O)N[C@@H](CCCCN)C(=O)N[C@@H](CO)C(=O)N[C@@H](CCCCN)C(=O)O [Pal-KSK-OH, reference compound] (Palmitoyl-Lys-Ser-Lys-OH)
Coll. I ([2]; 4 ppm peptide): +46%
Coll. IV ([2]; 4 ppm peptide): +1%
Fibronectin ([2]; dermal NHF, 4 ppm peptide): +26%

CCCCCCCCCCCCCCCC(=O)N[C@@H](CCS(C)(=O)=O)C(=O)NCCCCC(N)=O [Pal-MO2-Ava-NH2]
Collagen I in the dermis Test 2 ([1]; 2 ppm): +375%
Collagen I in the dermis Test 2 ([1]; 4 ppm): +582%
Collagen I in the dermis Test 2 ([1]; 6 ppm): +461%

CCCCCCCCCCCCCCCC(=O)N[C@@H](CCS(C)(=O)=O)C(=O)N[C@@H](CCCCN)C(=O)O [Pal-MO2-K-OH] (Palmitoyl-[Met(O2)]-Lys-OH)
Collagen I in the dermis Test 2 ([1]; 2 ppm): +270%
Collagen I in the dermis Test 2 ([1]; 4 ppm): +457%
Collagen I in the dermis Test 2 ([1]; 6 ppm): +226%

CCCCCCCCCCCCCCCC(=O)N[C@@H](CCS(C)(=O)=O)C(=O)N[C@H](C(=O)N[C@@H](Cc1ccccc1)C(=O)N[C@@H](CCCCN)C(=O)O)[C@@H](C)O [Pal-MO2-T-F-K-OH] (Palmitoyl-[Met(O2)]TFK-OH)
Collagen I in the dermis Test 2 ([1]; 2 ppm): +218%
Collagen I in the dermis Test 2 ([1]; 4 ppm): +456%
Collagen I in the dermis Test 2 ([1]; 6 ppm): +520%
Collagen I in the dermis Test 1 ([2]; 4 ppm): +111%
Collagen I in the dermis Test 1 ([2]; 6 ppm): +148%
